Test results taken from US20220304978A1, “INHIBITING MESANGIAL CELL ACTIVATION” (Chinook Therapeutics, Inc., priority 2019, published 2022).

Tested on: kidney tissue of g-ddY mice
Experiment: RNA-seq differential gene expression in kidney tissue of g-ddY mice
Assay type: in vivo, mouse
Procedure: RNA isolation and sequencing libraries were generated using standard protocols. Sequencing was performed using an Illumina NextSeq500 using manufacturer's instructions with a read length of 75 bp and a read depth of 30 million. Raw data was assembled to FASTQ files. Following QC analysis, high quality sequencing reads (e.g., reads with a Phred quality score >36) were aligned to the mouse reference genome (GRCm38-mm10) using the default parameters of the align algorithm and transcript count tables of each library was generated using the default parameters of the featureCounts algorithm of the RSubread package (Liao Y, Smyth GK, Shi W, 2019). High quality sequencing reads mapped to 27,129 genes. Following additional QC of low count filtering (i.e. transcripts <10 counts across all samples), 16,207 genes were identified and used for further analysis. The remaining sequencing read counts of the included 16,207 genes were normalized to library size, log-transformed, and were quantified as counts per million (CPM). Select RNA-seq counts were validated using qPCR. Sequencing read counts (CPM) were used for identification of differential gene expression between specified populations using the quasi-likelihood methodology of the edgeR package. […] MA plots were generated using edgeR. Heatmaps and other plots were generated using the gplots and ggplot2 package.

[1] = 20 mg/kg/day vs control, cell proliferation signaling
[2] = 20 mg/kg/day vs control, inflammatory response signaling
[3] = 20 mg/kg/day vs control, mesangial cell signature
[4] = 30 mg/kg/day vs control, IL6 signaling
[5] = 30 mg/kg/day vs control, NF-kB signaling
[6] = 30 mg/kg/day vs control, PDGF signaling
[7] = 30 mg/kg/day vs control, cell proliferation signaling
[8] = 30 mg/kg/day vs control, inflammatory response signaling
[9] = 30 mg/kg/day vs control, mesangial cell signature

CCCCN(CCCC)C(=O)CN1C[C@H](c2ccc3c(c2)OCO3)[C@@H](C(=O)O)[C@@H]1c1ccc(OC)cc1 [atrasentan, (2R,3R,4S)-4-(1,3-benzodioxol-5-yl)-1-[2-(dibutylamino)-2-oxoethyl]-2-(4-methoxyphenyl)pyrrolidine-3-carboxylic acid]
Rapgef5 logFC [1]: −0.3804
Rhot2 logFC [1]: 0.4576
Slc7a1 logFC [1]: −0.7304
Slc12a2 logFC [1]: −0.3373
Slc38a1 logFC [1]: −0.6989
Smc3 logFC [1]: −0.1696
Sorbs2 logFC [1]: −0.4717
Tiam1 logFC [1]: −0.9494
Tuba4a logFC [1]: 0.2861
Vcl logFC [1]: −0.3317
Ythdc1 logFC [1]: −0.0815
Btg2 logFC [2]: −0.6974
Cdkn1a logFC [2]: 0.2546
Chst2 logFC [2]: −0.368
Csf1 logFC [2]: −1.089
Edn1 logFC [2]: −1.328
Eif2ak2 logFC [2]: −0.3002
F3 logFC [2]: −0.5235
Gabbr1 logFC [2]: −0.1316
Hpn logFC [2]: 0.4187
Il1r1 logFC [2]: −0.8263
Ly6e logFC [2]: 0.2436
Nfkb1 logFC [2]: −0.616
Nfkbia logFC [2]: −0.7041
Rnf144b logFC [2]: −0.9765
Ros1 logFC [2]: −1.992
Serpine1 logFC [2]: −1.501
Slc4a4 logFC [2]: 0.5245
Slc7a1 logFC [2]: −0.7304
Slc7a2 logFC [2]: −1.336
Slc11a2 logFC [2]: 0.35
Ahnak logFC [3]: −0.7128
Akap12 logFC [3]: −0.5404
Akt3 logFC [3]: −0.4673
Aldob logFC [3]: 0.4923
Ankrd12 logFC [3]: −0.2463
C7 logFC [3]: −1.277
Cald1 logFC [3]: −0.5361
Cblb logFC [3]: −0.2068
Ebf1 logFC [3]: −0.3512
Epb41l2 logFC [3]: −0.6149
Ets1 logFC [3]: −0.3065
Fchsd2 logFC [3]: −0.1882
Frmd4a logFC [3]: −0.3955
Gata3 logFC [3]: −0.4924
Gpx3 logFC [3]: 0.71
Igfbp7 logFC [3]: 0.1088
Lama2 logFC [3]: −0.4437
Maml2 logFC [3]: −0.2311
Mef2c logFC [3]: −0.6302
Meis1 logFC [3]: −0.3593
Myh9 logFC [3]: −0.4543
Myo1e logFC [3]: −0.292
Nbea logFC [3]: −0.1933
Nfkbia logFC [3]: −0.7041
Nr4a1 logFC [3]: −1.621
Piezo2 logFC [3]: −0.6148
Postn logFC [3]: −2.293
Pparg logFC [3]: −0.5616
Ppp1r12a logFC [3]: −0.2135
Prkg1 logFC [3]: −0.328
Psd3 logFC [3]: −0.5227
Ptprm logFC [3]: −0.2678
Rapgef5 logFC [3]: −0.3804
Raph1 logFC [3]: −0.3852
Rbms3 logFC [3]: −0.7192
Robo1 logFC [3]: −0.7261
Stard13 logFC [3]: −0.6367
Tacc1 logFC [3]: −0.3693
Tcf4 logFC [3]: −0.224
Tjp1 logFC [3]: −0.3054
Tns3 logFC [3]: −0.3043
Unc5c logFC [3]: 0.3685
Utrn logFC [3]: −0.5143
Zeb2 logFC [3]: −0.6492
Cntfr logFC [4]: −0.9365
Csf1 logFC [4]: −1.26
Il1r1 logFC [4]: −0.6078
Il2ra logFC [4]: −1.58
Map3k8 logFC [4]: −0.8664
Ackr3 logFC [5]: 0.5485
Btg1 logFC [5]: −0.4825
Btg2 logFC [5]: −0.6689
Ccn1 logFC [5]: −0.9198
Ccnd1 logFC [5]: 0.6947
Cdkn1a logFC [5]: 0.6369
Csf1 logFC [5]: −1.26
Dnajb4 logFC [5]: −0.7534
Edn1 logFC [5]: −1.688
Efna1 logFC [5]: 0.7278
Ehd1 logFC [5]: 0.4138
F3 logFC [5]: −0.564
Fosl2 logFC [5]: −1.205
Gem logFC [5]: −1.912
Id2 logFC [5]: 0.5394
Ifit2 logFC [5]: −0.6119
Jag1 logFC [5]: −0.6784
Klf2 logFC [5]: −0.7182
Klf4 logFC [5]: −0.9474
Map3k8 logFC [5]: −0.8664
Nfat5 logFC [5]: −0.5845
Nfkb1 logFC [5]: −0.6498
Nfkbia logFC [5]: −0.7307
Nr4a1 logFC [5]: −1.803
Nr4a2 logFC [5]: −1.728
Nr4a3 logFC [5]: −1.939
Per1 logFC [5]: −0.9307
Pfkfb3 logFC [5]: −1.485
Pnrcl logFC [5]: 0.4856
Rel logFC [5]: −1.298
Rhob logFC [5]: −0.7265
Serpine1 logFC [5]: −1.387
Snn logFC [5]: 0.4725
Spsb1 logFC [5]: −1.097
Tnfaip8 logFC [5]: 0.517
Traf1 logFC [5]: −1.371
Trib1 logFC [5]: −1.074
Zbtb10 logFC [5]: −0.2912
Hras logFC [6]: 0.4354
Map3k1 logFC [6]: −0.7636
Nfkb1 logFC [6]: −0.6498
Nfkbia logFC [6]: −0.7307
Pdgfb logFC [6]: −0.5424
Pdgfra logFC [6]: −0.7094
Pik3cg logFC [6]: −0.7287
Pik3r1 logFC [6]: −0.6223
Pla2g4a logFC [6]: −0.9024
Tiam1 logFC [6]: −1.227
Arid4a logFC [7]: −0.5719
Atrx logFC [7]: −0.4031
Bcar1 logFC [7]: 0.4182
Ccdc88a logFC [7]: −0.7206
Ccnd1 logFC [7]: 0.6947
Cep192 logFC [7]: −0.43
Cntrl logFC [7]: −0.5569
Dmd logFC [7]: −0.405
Epb41l2 logFC [7]: −0.7021
Fgd6 logFC [7]: −0.6983
Flna logFC [7]: −0.6183
Itsn1 logFC [7]: −0.5129
Kmt5a logFC [7]: 0.4169
Meis1 logFC [7]: −0.4934
Myh9 logFC [7]: −0.6171
Myh10 logFC [7]: −0.5242
Myo1e logFC [7]: −0.4177
Nin logFC [7]: −0.7352
Ophn1 logFC [7]: −0.7129
Rapgef5 logFC [7]: −0.4225
Rhot2 logFC [7]: 0.5432
Slc7a1 logFC [7]: −0.7952
Slc12a2 logFC [7]: −0.3306
Slc38a1 logFC [7]: −0.8108
Smc3 logFC [7]: −0.4558
Sorbs2 logFC [7]: −0.3601
Tiam1 logFC [7]: −1.227
Tuba4a logFC [7]: 0.4958
Vcl logFC [7]: −0.3604
Ythdc1 logFC [7]: −0.3579
Btg2 logFC [8]: −0.6689
Cdkn1a logFC [8]: 0.6369
Chst2 logFC [8]: −0.9214
Csf1 logFC [8]: −1.26
Edn1 logFC [8]: −1.688
Eif2ak2 logFC [8]: −0.5033
F3 logFC [8]: −0.564
Gabbr1 logFC [8]: −0.5762
Hpn logFC [8]: 0.6197
Il1r1 logFC [8]: −0.6078
Ly6e logFC [8]: 0.6857
Nfkb1 logFC [8]: −0.6498
Nfkbia logFC [8]: −0.7307
Rnf144b logFC [8]: −0.8848
Ros1 logFC [8]: −1.985
Serpine1 logFC [8]: −1.387
Slc4a4 logFC [8]: 0.6146
Slc7a1 logFC [8]: −0.7952
Slc7a2 logFC [8]: −0.9808
Slc11a2 logFC [8]: 0.4205
Ahnak logFC [9]: −1.013
Akap12 logFC [9]: −0.8211
Akt3 logFC [9]: −0.4843
Aldob logFC [9]: 0.748
Ankrd12 logFC [9]: −0.4726
C7 logFC [9]: −1.079
Cald1 logFC [9]: −0.506
Cblb logFC [9]: −0.4288
Ebf1 logFC [9]: −0.4506
Epb41l2 logFC [9]: −0.7021
Ets1 logFC [9]: −0.3379
Fchsd2 logFC [9]: −0.3772
Frmd4a logFC [9]: −0.5742
Gata3 logFC [9]: −0.5216
Gpx3 logFC [9]: 1.122
Igfbp7 logFC [9]: 0.4259
Lama2 logFC [9]: −0.4895
Maml2 logFC [9]: −0.4441
Mef2c logFC [9]: −0.6869
Meis1 logFC [9]: −0.4934
Myh9 logFC [9]: −0.6171
Myo1e logFC [9]: −0.4177
Nbea logFC [9]: −0.432
Nfkbia logFC [9]: −0.7307
Nr4a1 logFC [9]: −1.803
Piezo2 logFC [9]: −0.8237
Postn logFC [9]: −1.247
Pparg logFC [9]: −0.6781
Ppp1r12a logFC [9]: −0.3826
Prkg1 logFC [9]: −0.6356
Psd3 logFC [9]: −0.5843
Ptprm logFC [9]: −0.5453
Rapgef5 logFC [9]: −0.4225
Raph1 logFC [9]: −0.5358
Rbms3 logFC [9]: −0.8895
Robo1 logFC [9]: −0.6009
Stard13 logFC [9]: −0.8466
Tacc1 logFC [9]: −0.4924
Tcf4 logFC [9]: −0.3055
Tjp1 logFC [9]: −0.3989
Tns3 logFC [9]: −0.4522
Unc5c logFC [9]: 0.9517
Utrn logFC [9]: −0.7697
Zeb2 logFC [9]: −0.6778
